{"source": "ChEMBL document CHEMBL5352492", "about": "“Application of deep generative model for design of Pyrrolo[2,3-d] pyrimidine derivatives as new selective TANK binding kinase 1 (TBK1) inhibitors” (Eur J Med Chem, 2023)", "key": {"[1]": {"target": "Mast/stem cell growth factor receptor Kit (Homo sapiens) (UniProt P10721)", "experiment": "Inhibition of KIT (unknown origin) at 100 to 1000 nM relative to control", "details": "dose 100-1000 nM"}, "[2]": {"target": "Insulin-like growth factor 1 receptor (Homo sapiens) (UniProt P08069)", "experiment": "Inhibition of IGF1R (unknown origin) at 100 to 1000 nM relative to control", "details": "dose 100-1000 nM"}, "[3]": {"system": "THP1-Blue ISG", "experiment": "Inhibition of LPS-induced ifn-beta in human THP1-Blue ISG cells treated for 2 hrs RTq-PCR analysis", "format": "functional, cell-based", "details": "dose 0.1-1 µM"}, "[4]": {"system": "THP1-Blue ISG", "experiment": "Inhibition of LPS-induced cxcl10 in human THP1-Blue ISG cells treated for 2 hrs RTq-PCR analysis", "format": "functional, cell-based", "details": "dose 0.1-1 µM"}, "[5]": {"target": "T1, Serine/threonine-protein kinase TBK1 (Homo sapiens) (UniProt Q9UHD2)", "T1 sequence (whole entry)": "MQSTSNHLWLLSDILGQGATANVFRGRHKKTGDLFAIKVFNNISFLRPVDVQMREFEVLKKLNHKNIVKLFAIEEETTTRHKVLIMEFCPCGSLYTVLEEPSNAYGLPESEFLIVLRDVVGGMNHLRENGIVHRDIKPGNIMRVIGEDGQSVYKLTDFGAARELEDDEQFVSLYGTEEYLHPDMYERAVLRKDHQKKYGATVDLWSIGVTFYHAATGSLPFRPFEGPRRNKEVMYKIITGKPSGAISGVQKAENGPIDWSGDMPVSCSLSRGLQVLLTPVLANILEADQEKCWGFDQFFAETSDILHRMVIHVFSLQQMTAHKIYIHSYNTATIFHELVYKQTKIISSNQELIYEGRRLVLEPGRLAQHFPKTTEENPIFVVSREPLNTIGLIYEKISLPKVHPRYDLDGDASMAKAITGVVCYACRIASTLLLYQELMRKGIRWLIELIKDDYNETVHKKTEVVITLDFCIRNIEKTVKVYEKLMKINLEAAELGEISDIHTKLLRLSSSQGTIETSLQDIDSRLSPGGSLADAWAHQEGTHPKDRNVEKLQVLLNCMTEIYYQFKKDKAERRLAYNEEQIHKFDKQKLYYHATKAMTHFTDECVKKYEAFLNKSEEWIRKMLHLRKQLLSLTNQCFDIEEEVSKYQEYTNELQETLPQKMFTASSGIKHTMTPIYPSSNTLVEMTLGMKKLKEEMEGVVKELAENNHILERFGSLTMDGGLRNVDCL", "experiment": "Inhibition of TBK1 phosphorylation (unknown origin) of downstream signalling effector protein S6K at 1 to 20 uM after 24 hrs by Western blotting analysis", "details": "dose 1-20 µM"}, "[6]": {"target": "Tyrosine-protein kinase ITK/TSK (Homo sapiens) (UniProt Q08881)", "sequence (Q08881 whole entry)": "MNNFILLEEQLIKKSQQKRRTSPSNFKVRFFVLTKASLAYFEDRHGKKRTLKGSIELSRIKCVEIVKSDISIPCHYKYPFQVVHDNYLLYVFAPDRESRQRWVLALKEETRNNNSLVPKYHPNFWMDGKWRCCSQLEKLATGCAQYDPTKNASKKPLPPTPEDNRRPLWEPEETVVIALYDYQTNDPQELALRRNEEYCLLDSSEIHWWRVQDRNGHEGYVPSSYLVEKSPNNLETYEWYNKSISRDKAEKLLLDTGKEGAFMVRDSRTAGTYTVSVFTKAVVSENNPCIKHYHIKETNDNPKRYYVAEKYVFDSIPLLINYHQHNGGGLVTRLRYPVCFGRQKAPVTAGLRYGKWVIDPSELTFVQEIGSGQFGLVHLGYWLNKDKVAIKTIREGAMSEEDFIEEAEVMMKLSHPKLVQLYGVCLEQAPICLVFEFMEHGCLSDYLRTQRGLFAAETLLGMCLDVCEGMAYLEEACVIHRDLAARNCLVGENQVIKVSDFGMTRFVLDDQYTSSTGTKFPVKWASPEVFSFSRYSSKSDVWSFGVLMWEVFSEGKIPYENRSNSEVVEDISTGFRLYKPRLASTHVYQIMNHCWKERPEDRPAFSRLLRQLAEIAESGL", "experiment": "Inhibition of ITK (unknown origin) at 100 to 1000 nM relative to control", "details": "dose 100-1000 nM"}, "[7]": {"target": "Insulin receptor (Homo sapiens) (UniProt P06213)", "experiment": "Inhibition of IR (unknown origin) at 100 to 1000 nM relative to control", "details": "dose 100-1000 nM"}, "[8]": {"target": "Ephrin type-A receptor 2 (Homo sapiens) (UniProt P29317)", "experiment": "Inhibition of EPH-A2 (unknown origin) at 100 to 1000 nM relative to control", "details": "dose 100-1000 nM"}, "[9]": {"target": "Macrophage-stimulating protein receptor (Homo sapiens) (UniProt Q04912)", "sequence (Q04912 25-304 limits assumed)": "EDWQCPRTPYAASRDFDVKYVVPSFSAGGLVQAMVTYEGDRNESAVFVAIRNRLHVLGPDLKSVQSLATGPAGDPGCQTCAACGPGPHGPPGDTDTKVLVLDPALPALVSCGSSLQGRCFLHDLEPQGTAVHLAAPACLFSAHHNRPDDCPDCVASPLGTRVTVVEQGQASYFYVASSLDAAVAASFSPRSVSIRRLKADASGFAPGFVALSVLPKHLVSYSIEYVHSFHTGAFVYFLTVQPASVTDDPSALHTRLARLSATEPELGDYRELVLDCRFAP", "sequence (Q04912 310-1400 limits assumed)": "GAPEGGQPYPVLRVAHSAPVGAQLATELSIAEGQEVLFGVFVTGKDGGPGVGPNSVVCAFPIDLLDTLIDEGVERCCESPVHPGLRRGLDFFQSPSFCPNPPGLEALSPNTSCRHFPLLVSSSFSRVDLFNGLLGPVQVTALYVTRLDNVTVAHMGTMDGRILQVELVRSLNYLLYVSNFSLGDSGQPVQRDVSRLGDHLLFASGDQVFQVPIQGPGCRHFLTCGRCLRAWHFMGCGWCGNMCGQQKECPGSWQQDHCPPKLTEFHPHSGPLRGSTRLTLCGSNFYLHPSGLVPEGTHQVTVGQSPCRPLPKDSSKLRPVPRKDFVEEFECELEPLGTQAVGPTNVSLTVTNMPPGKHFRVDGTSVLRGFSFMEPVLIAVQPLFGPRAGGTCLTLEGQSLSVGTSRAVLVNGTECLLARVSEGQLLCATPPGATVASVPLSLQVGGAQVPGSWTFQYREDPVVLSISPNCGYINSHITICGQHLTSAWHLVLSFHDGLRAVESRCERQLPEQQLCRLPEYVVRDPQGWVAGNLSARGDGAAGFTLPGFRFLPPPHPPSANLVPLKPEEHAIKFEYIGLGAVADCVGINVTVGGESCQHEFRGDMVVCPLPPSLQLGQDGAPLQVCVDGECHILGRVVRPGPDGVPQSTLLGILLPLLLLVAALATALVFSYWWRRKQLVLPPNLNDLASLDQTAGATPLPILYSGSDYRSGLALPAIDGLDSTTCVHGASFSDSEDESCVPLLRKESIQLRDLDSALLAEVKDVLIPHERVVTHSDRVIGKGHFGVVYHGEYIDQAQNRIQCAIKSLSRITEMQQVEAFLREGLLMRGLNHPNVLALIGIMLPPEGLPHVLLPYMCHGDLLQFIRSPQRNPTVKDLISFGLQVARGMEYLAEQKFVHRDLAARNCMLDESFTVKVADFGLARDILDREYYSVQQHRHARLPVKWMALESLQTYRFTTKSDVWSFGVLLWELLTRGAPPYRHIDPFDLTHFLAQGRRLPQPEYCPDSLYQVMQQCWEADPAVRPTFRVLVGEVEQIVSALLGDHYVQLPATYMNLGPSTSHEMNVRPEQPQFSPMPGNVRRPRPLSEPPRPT", "experiment": "Inhibition of RON (unknown origin) at 100 to 1000 nM relative to control", "details": "dose 100-1000 nM"}, "[10]": {"target": "Macrophage colony-stimulating factor 1 receptor (Homo sapiens) (UniProt P07333)", "experiment": "Inhibition of CSF1R (unknown origin) at 100 to 1000 nM relative to control", "details": "dose 100-1000 nM"}, "[11]": {"target": "Fibroblast growth factor receptor 1 (Homo sapiens) (UniProt P11362)", "experiment": "Inhibition of FGFR1 (unknown origin) at 100 to 1000 nM relative to control", "details": "dose 100-1000 nM"}, "[12]": {"target": "Platelet-derived growth factor receptor beta (Homo sapiens) (UniProt P09619)", "sequence (P09619 whole entry)": "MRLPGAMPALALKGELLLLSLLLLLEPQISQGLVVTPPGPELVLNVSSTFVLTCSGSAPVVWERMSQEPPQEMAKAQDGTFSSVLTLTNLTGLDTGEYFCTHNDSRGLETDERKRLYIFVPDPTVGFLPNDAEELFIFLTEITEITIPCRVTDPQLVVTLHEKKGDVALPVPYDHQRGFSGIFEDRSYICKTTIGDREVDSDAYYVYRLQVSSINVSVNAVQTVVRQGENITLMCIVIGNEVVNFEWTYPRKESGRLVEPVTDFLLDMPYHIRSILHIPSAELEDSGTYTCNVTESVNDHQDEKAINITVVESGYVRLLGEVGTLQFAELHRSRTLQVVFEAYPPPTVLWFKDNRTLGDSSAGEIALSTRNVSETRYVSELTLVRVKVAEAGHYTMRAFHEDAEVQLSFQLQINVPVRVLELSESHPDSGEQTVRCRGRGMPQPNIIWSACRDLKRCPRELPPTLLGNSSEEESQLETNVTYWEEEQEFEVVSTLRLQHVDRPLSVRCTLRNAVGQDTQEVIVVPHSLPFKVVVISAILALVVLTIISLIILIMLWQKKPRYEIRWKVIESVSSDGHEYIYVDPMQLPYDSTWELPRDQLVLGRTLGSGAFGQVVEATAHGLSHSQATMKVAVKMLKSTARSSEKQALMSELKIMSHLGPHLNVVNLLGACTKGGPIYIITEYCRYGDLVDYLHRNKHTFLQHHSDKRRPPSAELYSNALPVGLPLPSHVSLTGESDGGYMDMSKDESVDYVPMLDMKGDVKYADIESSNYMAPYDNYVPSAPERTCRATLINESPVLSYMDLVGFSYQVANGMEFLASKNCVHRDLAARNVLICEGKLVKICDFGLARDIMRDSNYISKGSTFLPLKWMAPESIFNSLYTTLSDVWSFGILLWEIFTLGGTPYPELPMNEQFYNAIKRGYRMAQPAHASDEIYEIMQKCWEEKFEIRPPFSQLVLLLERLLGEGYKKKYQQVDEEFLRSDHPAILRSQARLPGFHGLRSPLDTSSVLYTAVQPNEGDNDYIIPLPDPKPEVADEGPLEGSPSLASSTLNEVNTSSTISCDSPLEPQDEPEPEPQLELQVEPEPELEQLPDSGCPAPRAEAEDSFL", "experiment": "Inhibition of PDGFR-beta (unknown origin) at 100 to 1000 nM relative to control", "details": "dose 100-1000 nM"}, "[13]": {"target": "Tyrosine-protein kinase BTK (Homo sapiens) (UniProt Q06187)", "experiment": "Inhibition of BTK (unknown origin) at 100 to 1000 nM relative to control", "details": "dose 100-1000 nM"}, "[14]": {"target": "Vascular endothelial growth factor receptor 1 (Homo sapiens) (UniProt P17948)", "experiment": "Inhibition of VEGFR1 (unknown origin) at 100 to 1000 nM relative to control", "details": "dose 100-1000 nM"}, "[15]": {"target": "Ephrin type-B receptor 2 (Homo sapiens) (UniProt P29323)", "experiment": "Inhibition of EPH-B2 (unknown origin) at 100 to 1000 nM relative to control", "details": "dose 100-1000 nM"}, "[16]": {"target": "Receptor tyrosine-protein kinase erbB-4 (Homo sapiens) (UniProt Q15303)", "experiment": "Inhibition of ErbB4 (unknown origin) at 100 to 1000 nM relative to control", "details": "dose 100-1000 nM"}, "[17]": {"target": "T1, Serine/threonine-protein kinase TBK1 (Homo sapiens)", "experiment": "Inhibition of TBK1 (unknown origin) incubated at 100 nM for 1 hr in presence of ATP by FRET based Z'-Lyte assay relative to control"}, "[18]": {"target": "Vascular endothelial growth factor receptor 2 (Homo sapiens) (UniProt P35968)", "experiment": "Inhibition of VEGFR2 (unknown origin) at 100 to 1000 nM relative to control", "details": "dose 100-1000 nM"}, "[19]": {"system": "RAW264.7", "experiment": "Inhibition of LPS-induced ifn-beta in mouse RAW264.7 cells treated for 2 hrs RTq-PCR analysis", "format": "functional, cell-based", "details": "dose 0.1-1 µM"}, "[20]": {"target": "Receptor-type tyrosine-protein kinase FLT3 (Homo sapiens) (UniProt P36888)", "experiment": "Inhibition of Flt-3 (unknown origin) at 100 to 1000 nM relative to control", "details": "dose 100-1000 nM"}, "[21]": {"experiment": "Antiproliferative activity against LLC cells measured after 72 hrs by SRB staining method", "format": "functional, cell-based", "details": "Mus musculus, Lewis lung carcinoma"}, "[22]": {"target": "Receptor tyrosine-protein kinase erbB-2 (Homo sapiens) (UniProt P04626)", "experiment": "Inhibition of ErbB2 (unknown origin) at 100 to 1000 nM relative to control", "details": "dose 100-1000 nM"}, "[23]": {"system": "RAW264.7", "experiment": "Inhibition of LPS-induced cxcl10 in mouse RAW264.7 cells treated for 2 hrs RTq-PCR analysis", "format": "functional, cell-based", "details": "dose 0.1-1 µM"}, "[24]": {"target": "T2, Serine/threonine-protein kinase TBK1 (Homo sapiens, UniProt Q9UHD2)", "T2 sequence (Q9UHD2 whole entry)": "T1 sequence (whole entry)", "experiment": "Inhibition of TBK1 in human THP1-Blue ISG cells by measuring SEAP gene expression incubated for 24 hrs by reporter gene assay", "format": "cell-based"}, "[25]": {"target": "Proto-oncogene tyrosine-protein kinase Src (Homo sapiens) (UniProt P12931)", "sequence (P12931 2-536 limits assumed)": "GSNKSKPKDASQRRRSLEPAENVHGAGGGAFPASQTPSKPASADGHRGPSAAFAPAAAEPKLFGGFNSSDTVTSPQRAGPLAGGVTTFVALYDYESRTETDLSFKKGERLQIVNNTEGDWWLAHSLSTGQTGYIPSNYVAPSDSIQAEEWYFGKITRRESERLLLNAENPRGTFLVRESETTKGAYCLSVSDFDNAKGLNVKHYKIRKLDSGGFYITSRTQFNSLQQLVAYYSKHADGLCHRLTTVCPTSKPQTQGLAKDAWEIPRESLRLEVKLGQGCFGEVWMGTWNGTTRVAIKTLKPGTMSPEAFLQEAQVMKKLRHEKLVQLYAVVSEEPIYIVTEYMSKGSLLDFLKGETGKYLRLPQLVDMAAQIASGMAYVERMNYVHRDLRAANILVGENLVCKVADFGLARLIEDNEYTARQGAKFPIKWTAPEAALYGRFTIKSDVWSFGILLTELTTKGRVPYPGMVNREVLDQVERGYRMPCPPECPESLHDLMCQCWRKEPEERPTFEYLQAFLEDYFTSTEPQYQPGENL", "experiment": "Inhibition of Src (unknown origin) at 100 to 1000 nM relative to control", "details": "dose 100-1000 nM"}, "[26]": {"target": "Platelet-derived growth factor receptor alpha (Homo sapiens) (UniProt P16234)", "experiment": "Inhibition of PDGFR-alpha (unknown origin) at 100 to 1000 nM relative to control", "details": "dose 100-1000 nM"}, "[27]": {"target": "Vascular endothelial growth factor receptor 3 (Homo sapiens) (UniProt P35916)", "experiment": "Inhibition of VEGFR3 (unknown origin) at 100 to 1000 nM relative to control", "details": "dose 100-1000 nM"}, "[28]": {"target": "Activated CDC42 kinase 1 (Homo sapiens) (UniProt Q07912)", "sequence (Q07912 whole entry, looked up)": "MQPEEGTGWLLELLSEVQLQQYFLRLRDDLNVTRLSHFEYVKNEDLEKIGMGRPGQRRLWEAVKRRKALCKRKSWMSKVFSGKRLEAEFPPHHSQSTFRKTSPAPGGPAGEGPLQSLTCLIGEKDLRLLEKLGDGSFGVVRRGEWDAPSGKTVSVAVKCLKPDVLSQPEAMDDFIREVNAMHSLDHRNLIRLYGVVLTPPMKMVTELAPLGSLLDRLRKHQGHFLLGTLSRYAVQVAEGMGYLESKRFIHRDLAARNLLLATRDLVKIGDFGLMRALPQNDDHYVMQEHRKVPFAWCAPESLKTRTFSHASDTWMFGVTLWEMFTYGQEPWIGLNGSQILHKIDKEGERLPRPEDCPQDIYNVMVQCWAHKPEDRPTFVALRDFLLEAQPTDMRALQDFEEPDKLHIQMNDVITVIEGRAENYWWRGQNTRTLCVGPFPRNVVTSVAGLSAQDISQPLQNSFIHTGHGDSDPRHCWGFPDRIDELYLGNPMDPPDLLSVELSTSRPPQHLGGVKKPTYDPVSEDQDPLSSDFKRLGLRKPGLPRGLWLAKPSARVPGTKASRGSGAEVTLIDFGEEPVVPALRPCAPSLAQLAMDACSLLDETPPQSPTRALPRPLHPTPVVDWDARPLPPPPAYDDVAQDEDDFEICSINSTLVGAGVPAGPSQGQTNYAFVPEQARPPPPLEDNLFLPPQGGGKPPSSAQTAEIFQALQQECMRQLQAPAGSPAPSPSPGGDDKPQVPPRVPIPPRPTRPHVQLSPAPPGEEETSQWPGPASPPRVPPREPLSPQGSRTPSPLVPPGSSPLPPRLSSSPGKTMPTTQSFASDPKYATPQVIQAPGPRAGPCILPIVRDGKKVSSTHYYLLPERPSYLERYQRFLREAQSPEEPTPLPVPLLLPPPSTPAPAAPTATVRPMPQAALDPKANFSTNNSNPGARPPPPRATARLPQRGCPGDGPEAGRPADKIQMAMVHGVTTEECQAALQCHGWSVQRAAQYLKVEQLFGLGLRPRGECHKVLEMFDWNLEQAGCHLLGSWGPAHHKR", "experiment": "Inhibition of ACK1 (unknown origin) at 100 to 1000 nM relative to control", "details": "dose 100-1000 nM"}, "[29]": {"target": "Focal adhesion kinase 1 (Homo sapiens) (UniProt Q05397)", "experiment": "Inhibition of FAK (unknown origin) at 100 to 1000 nM relative to control", "details": "dose 100-1000 nM"}}, "data": [{"smiles": "CC(=O)N1CCN(Cc2cccc(Nc3ncc4ccn(CCCNC(=O)C5CCC5)c4n3)c2)CC1", "values": [{"measurement": "inhibition", "setting": "[1]", "value": "< 35", "unit": "%"}, {"measurement": "inhibition", "setting": "[2]", "value": "< 35", "unit": "%"}, {"measurement": "inhibition", "setting": "[3]", "value": "Dose-Dependent Effect"}, {"measurement": "inhibition", "setting": "[4]", "value": "Dose-Dependent Effect"}, {"measurement": "inhibition", "setting": "[5]", "value": "Dose-Dependent Effect"}, {"measurement": "inhibition", "setting": "[6]", "value": "< 35", "unit": "%"}, {"measurement": "inhibition", "setting": "[7]", "value": "< 35", "unit": "%"}, {"measurement": "inhibition", "setting": "[8]", "value": "< 35", "unit": "%"}, {"measurement": "inhibition", "setting": "[9]", "value": "< 35", "unit": "%"}, {"measurement": "inhibition", "setting": "[10]", "value": "< 35", "unit": "%"}, {"measurement": "inhibition", "setting": "[11]", "value": "< 35", "unit": "%"}, {"measurement": "inhibition", "setting": "[12]", "value": "< 35", "unit": "%"}, {"measurement": "inhibition", "setting": "[13]", "value": "< 35", "unit": "%"}, {"measurement": "inhibition", "setting": "[14]", "value": "< 35", "unit": "%"}, {"measurement": "inhibition", "setting": "[15]", "value": "< 35", "unit": "%"}, {"measurement": "inhibition", "setting": "[16]", "value": "< 35", "unit": "%"}, {"measurement": "inhibition", "setting": "[17]", "value": 66.2, "unit": "%"}, {"measurement": "inhibition", "setting": "[18]", "value": "< 35", "unit": "%"}, {"measurement": "inhibition", "setting": "[19]", "value": "Dose-Dependent Effect"}, {"measurement": "inhibition", "setting": "[20]", "value": "< 35", "unit": "%"}, {"measurement": "IC50", "setting": "[21]", "value": 9.4, "unit": "µM"}, {"measurement": "inhibition", "setting": "[22]", "value": "< 35", "unit": "%"}, {"measurement": "inhibition", "setting": "[23]", "value": "Dose-Dependent Effect"}, {"measurement": "IC50", "setting": "[24]", "value": 0.566, "unit": "µM"}, {"measurement": "inhibition", "setting": "[25]", "value": "< 35", "unit": "%"}, {"measurement": "inhibition", "setting": "[26]", "value": "< 35", "unit": "%"}, {"measurement": "inhibition", "setting": "[27]", "value": "< 35", "unit": "%"}, {"measurement": "inhibition", "setting": "[28]", "value": "< 35", "unit": "%"}, {"measurement": "inhibition", "setting": "[29]", "value": "< 35", "unit": "%"}]}]}
